The source of these data is patent US5739121A, “Fluorocyclosaccharide drug delivery systems” (University of Alberta, priority 1993, dated 1998).

Series [1] can be described thus: Biodistribution of 6-F3 βCD at 15 minutes after a single intravenous dose. It is filed as in vivo, BALB/C mouse. The note with it: mouse. The procedure:
(§1) A Bruker AM-300 (7.05 Tesla, 282.39 Mhz) and a Bruker CXP-100 (2.35 Telsa, 94.26 Mhz, 40 cm. bore) spectrometer were used for ^19 F NMR spectroscopy. The CXP-100 spectrometer was used with a 20 mm diameter, three turn horizontal coil. The biodistribution and excretion study of Example 4 was performed on the CXP-100 spectrometer, while ^1 H, ^13 C and ^19 F NMR spectra for synthesized compounds, blood, urine and extracts of liver were obtained using the Bruker AM-300 instrument. The ^19 F NMR were acquired over a spectral width of 70.0 ppm (between +60.0 and -10.0 ppm). The number of scans varied from 2.5 k to 45 k scans depending on the size of biological samples. An aqueous solution of chromium acetate (90 μL; 0.1M) was used as a relaxation agent to enhance the S/N ratio. Exponential line broadening of 0-40 Hz was imposed on the data prior to Fourier transformation. An aqueous solution of potassium fluoride (5 μL; 0.2M) was used as an internal standard during acquisition of ^19 F NMR spectra while ^1 H and ^13 C NMR spectra were locked on deuterium. D2 O was used as a solvent for samples of blood, urine and liver extract) which appeared at δ4.68 ppm (^1 H NMR spectra) with respect to tetramethylsilane. The resolution limits for ^1 H, ^13 C and ^19 F were observed between 0.5-1.1, 2.0-3.0 and 1.3-20.0 Hz, respectively. The chemical shifts are reported in δ ppm.
6-F3 βCD (90 mg/ml in water) was administered to a BALB/C mouse by intravenous injection through the tail vein, at a dose of 13.5 mg 6-F3 βCD per mouse. The mouse was placed in a beaker layered with filter paper to absorb the urine excreted during the experiment. 15 minutes after administration of the drug complex, blood was collected by cardiac puncture, the mouse was sacrificed by euthanasia in dry ice and the desired organs were collected by dissection. All samples were immediately frozen and held frozen until NMR studies.

Series [2] can be described thus: Metabolic degradation after intravenous injection of 6-F3 βCD. It is filed as in vivo, BALB/C mouse. The note with it: mouse, i.v. injection, over the first fifteen minutes; 15 min. The procedure: as §1, with “ppm. […]” for “ppm.”

As for `O[C@@H]1[C@@H](O)[C@H]2O[C@H]3[C@H](O)[C@@H](O)[C@@H](O[C@H]4[C@H](O)[C@@H](O)[C@@H](O[C@H]5[C@H](O)[C@@H](O)[C@@H](O[C@H]6[C@H](O)[C@@H](O)[C@@H](O[C@H]7[C@H](O)[C@@H](O)[C@@H](O[C@H]8[C@H](O)[C@@H](O)[C@@H](O[C@@H]1[C@@H](COCC(F)(F)F)O2)O[C@@H]8COCC(F)(F)F)O[C@@H]7COCC(F)(F)F)O[C@@H]6COCC(F)(F)F)O[C@@H]5COCC(F)(F)F)O[C@@H]4COCC(F)(F)F)O[C@@H]3COCC(F)(F)F` [6-F3 βCD, Heptakis [6.0-(2,2,2-trifluoroethyl)]-β-cyclodextrin], in series [1] (single i.v. 13.5 mg per mouse (tail vein), tail), the “% Dose in tail” value stood at 2.14 % Dose. Besides, the “% Dose in blood” value in series [1] (single i.v. 13.5 mg per mouse, blood) amounted to 62.59 % Dose. Besides, in series [1] (single i.v. 13.5 mg per mouse, intestine), the “% Dose in intestine” value is 0.72 % Dose. The “% Dose in kidney” value in series [1] (single i.v. 13.5 mg per mouse, kidney) was found to be 1.87 % Dose. Further, the “% Dose in liver” value in series [1] (single i.v. 13.5 mg per mouse, liver) came to 4.09 % Dose. In addition, the “% Dose in urine” value in series [1] (single i.v. 13.5 mg per mouse, urine) is recorded as 40.96 % Dose. The “metabolic degradation, share of the administered dose” value in series [2] is “less than 5%”.
